Test results: patent US12629319B2, “Injection apparatus and method of use” (MOBIUS THERAPEUTICS, INC., priority 2020, dated 2026)

Tested on: Glaucoma patients
Experiment: Clinical study: subtenon injection of MMC versus MMC-soaked sponges in trabeculectomy
Description: A clinical study was set up to compare the efficacy and safety of subtenon injection of mitomycin C (MMC) using the instant injection system and kits, with that of conventional application of MMC-soaked sponges in trabeculectomy. Glaucoma patients were randomized into two groups; group 1 received a subtenon injection of 0.1 mL of 0.01% MMC by the second sterile syringe, while group 2 received 0.02% MMC-soaked Weck-Cel® sponges to physically disperse the MMC. The injection was placed in the far posterior fornix on a 30-gauge needle prior to the conjunctival peritomy for trabeculectomy. Primary outcome measure is intraocular pressure (IOP), and secondary outcome measures are endothelial cell count (ECC) changes and bleb morphology according to the Indiana Bleb Appearance Grading Scale. Outcome measures were compared at 1, 3 and 6 months postoperatively. Complete and qualified success was defined as IOP within 6-15 mm Hg without and with medications at month 6, respectively.
Data was to be presented in the form of mean, SD, median and range, frequency and percentage values. Normal distribution of data was assessed by Kolmogrov-Smirnov test and Q-Q plot. To evaluate differences between the study groups, χ2, t-test and Mann-Whitney tests. Wilcoxon singed-rank test and the linear mixed model were used to assess changes within the study groups. The Wilcoxon singed-rank test is followed by Bonferroni correction to consider multiple comparisons. To compare the groups adjusted for baseline values, analysis of covariance and Poisson regression (based on the type of response) were used. All statistical analyses were performed using SPSS software (IBM SPSS Statistics for Windows, V. 23.0, Released 2014, IBM, Armonk, New York, USA). All tests were two-sided and p values less than 0.05 were considered statistically significant.

CO[C@@]12[C@H](COC(N)=O)C3=C(C(=O)C(C)=C(N)C3=O)N1C[C@@H]1N[C@@H]12 [MMC, mitomycin C]
dependence on glaucoma medications (MMC injection compared to cellulose sponge delivery, trabeculectomy): decreased
bleb morphology (Indiana Bleb Appearance Grading Scale) (MMC injection compared to trabeculectomies performed with sponges): more favorable
overall study conclusion for MMC injection versus sponge delivery (MMC injection through the instant apparatus and kits): non-inferiority with improved predictability
intraocular pressure (IOP) (subtenon injection of 0.1 mL of 0.01% MMC compared to 0.02% MMC-soaked cellulose sponges, trabeculectomy, 1, 3 and 6 months postoperatively): lower
